In the experiment the target is T1, human RORγ-LBD (Homo sapiens, UniProt P51449).
T1 construct: made in house; host or cells: E. coli (BL-21)
T1 sequence (P51449 262-518): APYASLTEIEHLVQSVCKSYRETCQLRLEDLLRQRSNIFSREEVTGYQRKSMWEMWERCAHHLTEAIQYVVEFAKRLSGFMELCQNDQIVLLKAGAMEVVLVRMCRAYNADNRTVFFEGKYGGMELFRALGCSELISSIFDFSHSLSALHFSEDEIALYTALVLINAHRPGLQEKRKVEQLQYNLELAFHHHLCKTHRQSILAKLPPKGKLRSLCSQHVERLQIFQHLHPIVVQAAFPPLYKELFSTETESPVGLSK
The experiment can be described thus: ROR gamma coactivator peptide recruitment Alphascreen assay (RORγ-LBD binding to GRIP1 coactivator peptide). The class given is biochemical. Particulars: 5 nM human RORγ-LBD, 30 nM 7-β-hydroxycholesterol, 50 nM biotinylated GRIP1 coactivator peptide, overnight incubation at room temperature; read-out: result (pIC50, RORγ coactivator peptide recruitment Alphascreen assay) (converted). The gist of the method:
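Alphascreen proximity read-out after overnight room-temperature incubation, yielding pIC50 from 1-in-2 compound series (2.5% DMSO final). Mixture: 50 nM biotin-GRIP1 peptide, 30 nM 7-β-hydroxycholesterol agonist, 5 nM recombinant 6×His:Flag human RORγ-LBD (aa 262-518), 50 mM HEPES pH 7.4.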

Consider `C=CCC1(CC=C)C[C@H](Cc2c(Cl)cncc2Cl)N(C(=O)c2cnn([C@H]3CC[C@](C)(C(=O)O)CC3)c2C(F)(F)F)C1` [Example 618, trans-4-(4-(((2R)-2-((3,5-dichloro-4-pyridinyl)methyl)-4,4-di(2-propen-1-yl)-1-pyrrolidinyl)carbonyl)-5-(trifluoromethyl)-1H-pyrazol-1-yl)-1-methylcyclohexanecarboxylic acid], for which the IC50 is 10.5 nM.

As to `CC1(C)CC[C@H]1N(CC(=O)c1c(Cl)cccc1Cl)C(=O)c1cnn([C@H]2CC[C@](C)(C(=O)O)CC2)c1C(F)(F)F` [Example 619], the IC50 is 7.76 nM.

Take `CC1(C)CC[C@@H]1N(CC(=O)c1c(Cl)cccc1Cl)C(=O)c1cnn([C@H]2CC[C@](C)(C(=O)O)CC2)c1C(F)(F)F` [Example 620]: the IC50 was 38.9 nM.

Turning to `O=C(c1cnn([C@H]2CC[C@@H](C(=O)O)CC2)c1C(F)(F)F)N(CCc1c(Cl)cncc1Cl)[C@@H]1CCC12CCC2` [Example 621, cis-4-(4-((2-(3,5-dichloro-4-pyridinyl)ethyl)((1R)-spiro[3.3]hept-1-yl)carbamoyl)-5-(trifluoromethyl)-1H-pyrazol-1-yl)cyclohexanecarboxylic acid], the IC50 is 302 nM.

As for `CC(C)(C#N)CCN(CC(=O)c1c(Cl)cccc1Cl)C(=O)c1cnn([C@H]2CC[C@](C)(C(=O)O)CC2)c1C(F)(F)F` [Example 622, trans-4-(4-((3-cyano-3-methylbutyl)(2-(2,6-dichlorophenyl)-2-oxoethyl)carbamoyl)-5-(trifluoromethyl)-1H-pyrazol-1-yl)-1-methylcyclohexanecarboxylic acid], the IC50 was 229 nM.

Regarding `O=C(CN(C(=O)c1cnn([C@H]2CC[C@@H](C(=O)O)CC2)c1C(F)(F)F)[C@H]1CC12CCCC2)c1c(Cl)cccc1Cl` [Example 624, cis-4-(4-((2-(2,6-dichlorophenyl)-2-oxoethyl)((1S)-spiro[2.4]hept-1-yl)carbamoyl)-5-(trifluoromethyl)-1H-pyrazol-1-yl)cyclohexanecarboxylic acid], the IC50 is 102 nM.

Consider `C[C@]1(C(=O)O)CC[C@H](n2ncc(C(=O)N(CC(=O)c3c(Cl)cccc3Cl)[C@H]3CCC34CCCC4)c2C(F)(F)F)CC1` [Example 626], for which the IC50 was 2.82 nM.

Consider `CC1(C)C[C@H](CN(CC(=O)c2c(Cl)cccc2Cl)C(=O)c2cnn([C@H]3CC[C@](C)(C(=O)O)CC3)c2C(F)(F)F)O1` [Example 628, trans-4-(4-((2-(2,6-dichlorophenyl)-2-oxoethyl)(((2R)-4,4-dimethyl-2-oxetanyl)methyl)carbamoyl)-5-(trifluoromethyl)-1H-pyrazol-1-yl)-1-methylcyclohexanecarboxylic acid], for which the IC50 is 26.9 nM.

With `CC1(C)C[C@@H](CN(CC(=O)c2c(Cl)cccc2Cl)C(=O)c2cnn([C@H]3CC[C@](C)(C(=O)O)CC3)c2C(F)(F)F)O1` [Example 629, trans-4-(4-((2-(2,6-dichlorophenyl)-2-oxoethyl)(((2S)-4,4-dimethyl-2-oxetanyl)methyl)carbamoyl)-5-(trifluoromethyl)-1H-pyrazol-1-yl)-1-methylcyclohexanecarboxylic acid], the IC50 is 45.7 nM.

Consider `Cc1cc(Cl)c(C(=O)CN(CC2(F)CC2)C(=O)c2cnn([C@H]3CC[C@](C)(C(=O)O)CC3)c2C(F)(F)F)c(Cl)c1` [Example 630, trans-4-(4-((2-(2,6-dichloro-4-methylphenyl)-2-oxoethyl)((1-fluorocyclopropyl)methyl)carbamoyl)-5-(trifluoromethyl)-1H-pyrazol-1-yl)-1-methylcyclohexanecarboxylic acid], for which the IC50 was 3.98 nM.

Turning to `Cc1cc(Cl)c(C(=O)CN(CC2(F)CCCC2)C(=O)c2cnn([C@H]3CC[C@@H](C(=O)O)CC3)c2C(F)(F)F)c(Cl)c1` [Example 631, cis-4-(4-((2-(2,6-dichloro-4-methylphenyl)-2-oxoethyl)((1-fluorocyclopentyl)methyl)carbamoyl)-5-(trifluoromethyl)-1H-pyrazol-1-yl)cyclohexanecarboxylic acid], the IC50 was 10 nM.

For the compound `C[C@]1(C(=O)O)CC[C@H](n2ncc(C(=O)N(CC(=O)c3c(Cl)cccc3Cl)C3CC4(CCC4)C3)c2C(F)(F)F)CC1` [Example 632, trans-4-(4-((2-(2,6-dichlorophenyl)-2-oxoethyl)(spiro[3.3]hept-2-yl)carbamoyl)-5-(trifluoromethyl)-1H-pyrazol-1-yl)-1-methylcyclohexanecarboxylic acid], the IC50 is 3.98 nM.

On to `C[C@]1(C(=O)O)CC[C@H](n2ncc(C(=O)N(CC(=O)c3c(Cl)cncc3Cl)C3CC4(CCC4)C3)c2C(F)(F)F)CC1` [Example 633, trans-4-(4-((2-(3,5-dichloro-4-pyridinyl)-2-oxoethyl)(spiro[3.3]hept-2-yl)carbamoyl)-5-(trifluoromethyl)-1H-pyrazol-1-yl)-1-methylcyclohexanecarboxylic acid], for which the IC50 is 8.13 nM.

`CC1(C)CC[C@H]1N(CC(=O)c1c(Cl)cncc1Cl)C(=O)c1cnn([C@H]2CC[C@@H](C(=O)O)CC2)c1C(F)(F)F` [Example 634, cis-4-(4-((2-(3,5-dichloro-4-pyridinyl)-2-oxoethyl)((1R)-2,2-dimethylcyclobutyl)carbamoyl)-5-(trifluoromethyl)-1H-pyrazol-1-yl)cyclohexanecarboxylic acid]: the IC50 was 871 nM.

In the case of `CC1(C)CC[C@@H]1N(CC(=O)c1c(Cl)cncc1Cl)C(=O)c1cnn([C@H]2CC[C@@H](C(=O)O)CC2)c1C(F)(F)F` [Example 635, cis-4-(4-((2-(3,5-dichloro-4-pyridinyl)-2-oxoethyl)((1S)-2,2-dimethylcyclobutyl)carbamoyl)-5-(trifluoromethyl)-1H-pyrazol-1-yl)cyclohexanecarboxylic acid], the IC50 is 324 nM.

Regarding `CC1(C)CC[C@H]1N(CC(=O)c1c(Cl)cccc1Cl)C(=O)c1cnn([C@H]2CC[C@@H](C(=O)O)CC2)c1C(F)(F)F` [Example 636, cis-4-(4-((2-(2,6-dichlorophenyl)-2-oxoethyl)((1R)-2,2-dimethylcyclobutyl)carbamoyl)-5-(trifluoromethyl)-1H-pyrazol-1-yl)cyclohexanecarboxylic acid], the IC50 is 132 nM.

`CC1(C)CC[C@@H]1N(CC(=O)c1c(Cl)cccc1Cl)C(=O)c1cnn([C@H]2CC[C@@H](C(=O)O)CC2)c1C(F)(F)F` [Example 637, cis-4-(4-((2-(2,6-dichlorophenyl)-2-oxoethyl)((1S)-2,2-dimethylcyclobutyl)carbamoyl)-5-(trifluoromethyl)-1H-pyrazol-1-yl)cyclohexanecarboxylic acid]: the IC50 was 724 nM.

For the compound `COC1(CN(CC(=O)c2c(Cl)cncc2Cl)C(=O)c2cnn([C@H]3CC[C@](C)(C(=O)O)CC3)c2C(F)(F)F)CCCC1` [Example 638, trans-4-(4-((2-(3,5-dichloro-4-pyridinyl)-2-oxoethyl)((1-methoxycyclopentyl)methyl)carbamoyl)-5-(trifluoromethyl)-1H-pyrazol-1-yl)-1-methylcyclohexanecarboxylic acid], the IC50 was 15.5 nM.

Take `C[C@]1(C(=O)O)CC[C@H](n2ncc(C(=O)N(CC(=O)c3c(Cl)cccc3Cl)[C@@H]3CCC34CCC4)c2C(F)(F)F)CC1` [Example 639, trans-4-(4-((2-(2,6-dichlorophenyl)-2-oxoethyl)((1R)-spiro[3.3]hept-1-yl)carbamoyl)-5-(trifluoromethyl)-1H-pyrazol-1-yl)-1-methylcyclohexanecarboxylic acid]: the IC50 was 57.5 nM.

With `O=C(CN(C(=O)c1cnn([C@H]2CC[C@@H](C(=O)O)CC2)c1C(F)(F)F)[C@@H]1CCC12CCC2)c1c(Cl)cccc1Cl` [Example 640, cis-4-(4-((2-(2,6-dichlorophenyl)-2-oxoethyl)((1R)-spiro[3.3]hept-1-yl)carbamoyl)-5-(trifluoromethyl)-1H-pyrazol-1-yl)cyclohexanecarboxylic acid], the IC50 was 776 nM.

As for `C[C@]1(C(=O)O)CC[C@H](n2ncc(C(=O)N(CC(=O)c3c(Cl)cccc3Cl)[C@H]3CCC34CCC4)c2C(F)(F)F)CC1` [Example 641, trans-4-(4-((2-(2,6-dichlorophenyl)-2-oxoethyl)((1S)-spiro[3.3]hept-1-yl)carbamoyl)-5-(trifluoromethyl)-1H-pyrazol-1-yl)-1-methylcyclohexanecarboxylic acid], the IC50 is 2.14 nM.

For `O=C(CN(C(=O)c1cnn([C@H]2CC[C@@H](C(=O)O)CC2)c1C(F)(F)F)[C@H]1CCC12CCC2)c1c(Cl)cccc1Cl` [Example 642, cis-4-(4-((2-(2,6-dichlorophenyl)-2-oxoethyl)((1S)-spiro[3.3]hept-1-yl)carbamoyl)-5-(trifluoromethyl)-1H-pyrazol-1-yl)cyclohexanecarboxylic acid], the IC50 was 24 nM.

With `C[C@]1(C(=O)O)CC[C@H](n2ncc(C(=O)N(CC(=O)c3c(F)cccc3Cl)CC3(F)CCCC3)c2C(F)(F)F)CC1` [Example 643, trans-4-(4-((2-(2-chloro-6-fluorophenyl)-2-oxoethyl)((1-fluorocyclopentyl)methyl)carbamoyl)-5-(trifluoromethyl)-1H-pyrazol-1-yl)-1-methylcyclohexanecarboxylic acid], the IC50 was 4.27 nM.

For `CCC(CC)(CC)CN(CC(=O)c1c(Cl)cncc1Cl)C(=O)c1cnn([C@H]2CC[C@](C)(C(=O)O)CC2)c1C(F)(F)F` [Example 644, trans-4-(4-((2-(3,5-dichloro-4-pyridinyl)-2-oxoethyl)(2,2-diethylbutyl)carbamoyl)-5-(trifluoromethyl)-1H-pyrazol-1-yl)-1-methylcyclohexanecarboxylic acid], the IC50 is 3.98 nM.

For the origin of these results see patent publication US9365522B2, “Pyrazole amide derivative” (AMGEN INC., priority 2015, dated 2016).
